Consider 24 molecules from PubChem BioAssay AID493075 (Broad Institute, 2011).

Molecules are shown by their SMILES. Active and inactive are the calls of the source.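 The calls were made as follows: active = luminescence drop in every repeat test, with half-maximal concentration at most ten times the top dose; inconclusive = repeat tests disagree; inactive = inactive in every repeat test.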

A word on the AC50: it is the concentration giving half of the maximal activity seen.

Assay [1] relates to Vibrio harveyi JMH597 AI-2 quorum sensing luminescence, 9 h. In words: LuxS/LuxPQ-dependent luminescence inhibition, V. harveyi – dry powder, set 3, dose response (AID 493075).
Assay in assay [2]: as above
The settings on record: Vibrio harveyi JMH597 AI-2 quorum sensing luminescence, 9 h; at 16 µM (top of the series).

Consider `C[C@H](CO)N1C[C@H](C)[C@@H](CN(C)Cc2ccc3c(c2)OCO3)Oc2c(NC(=O)NC3CCCCC3)cccc2C1=O`, for which, in assay [1], the AC50 was 7.05 µM.

Turning to `C[C@@H]1CCCCO[C@@H](CN(C)Cc2ccc(C(=O)O)cc2)[C@H](C)CN([C@H](C)CO)C(=O)c2cc(NC(=O)CCCN(C)C)ccc2O1`, the activity change, negative = inhibition in assay [2] was -4.89% (inactive).

Turning to `C[C@@H]1CN([C@@H](C)CO)C(=O)Cc2cc(NC(=O)CCN3CCOCC3)ccc2O[C@H]1CN(C)C(=O)Nc1ccc(F)cc1`, in assay [2], the activity change, negative = inhibition is -10.1% (inactive).

Take `C[C@@H]1CN([C@H](C)CO)C(=O)c2cccc(NC(=O)Nc3ccc(C(F)(F)F)cc3)c2O[C@@H]1CN(C)C(=O)Nc1ccc(C(F)(F)F)cc1`: in assay [2], the activity change, negative = inhibition is -16.5% (inactive).

With `C=Cn1c(C(=O)O)ccc1-c1ccc(Cl)cc1`, the concentration at half-maximal activity (AC50) in assay [1] is 4.97 µM.

As to `C[C@@H]1CN([C@@H](C)CO)C(=O)Cc2cc(NC(=O)CCN3CCOCC3)ccc2O[C@H]1CN(C)C(=O)Nc1ccc(C(F)(F)F)cc1`, the activity change, negative = inhibition in assay [2] was -2.52% (inactive).

Take `C=Cn1c(C(=O)O)ccc1-c1ccc(OC)cc1`: the concentration at half-maximal activity (AC50) in assay [1] is 8.59 µM.

Regarding `Cc1ccc(S(=O)(=O)Nc2ccc3c(c2)CC(=O)N([C@@H](C)CO)C[C@@H](C)[C@H](CN(C)C(=O)Nc2ccc(F)cc2)O3)cc1`, in assay [2], the activity change, negative = inhibition is -1.6% (inactive).

Take `O=C1C=C/C(=C/Br)O1`: in assay [1], the AC50 is 3.78 µM.

For the molecule `C[C@H](CO)N1C[C@H](C)[C@@H](CN(C)C(=O)Nc2ccc(C(F)(F)F)cc2)Oc2ccc(NC(=O)Nc3ccc4c(c3)OCO4)cc2C1=O`, the activity change, negative = inhibition in assay [2] is -5.58% (inactive).

Regarding `CNC[C@@H]1Oc2ccc(NC(=O)C3CCCCC3)cc2CC(=O)N([C@@H](C)CO)C[C@H]1C`, the activity change, negative = inhibition in assay [2] is -5.97% (inactive).

In the case of `CCc1ccc(-c2ccc(C(=O)O)n2C)cc1`, in assay [1], the half-maximal activity concentration (AC50) was 4.46 µM.

As to `C[C@@H]1CCCCO[C@@H](CN(C)Cc2ccncc2)[C@H](C)CN([C@H](C)CO)C(=O)c2cc(NC(=O)C3CCCCC3)ccc2O1`, in assay [2], the activity change, negative = inhibition is 0.341% (inactive).

Regarding `O=S(=O)(Nc1ccccn1)c1ccccc1`, the activity change, negative = inhibition in assay [2] is -0.42% (inactive).

For `Cc1ccc(S(=O)(=O)Nc2ccc3c(c2)C(=O)N([C@H](C)CO)C[C@H](C)[C@@H](CN(C)Cc2ccc(C(F)(F)F)cc2)O3)cc1`, in assay [2], the activity change, negative = inhibition was -11% (inactive).

Turning to `C[C@H](CO)N1C[C@H](C)[C@H](CN(C)Cc2ccc(C(=O)O)cc2)Oc2ncc(-c3ccc(C(=O)N(C)C)cc3)cc2C1=O`, the activity change, negative = inhibition in assay [2] is 24.5% (inactive).

As for `C[C@H]1CN([C@@H](C)CO)C(=O)c2cc(NC(=O)Nc3ccc4c(c3)OCO4)ccc2O[C@@H]1CN(C)C(=O)Nc1ccc(C(F)(F)F)cc1`, the activity change, negative = inhibition in assay [2] is -5.41% (inactive).

Regarding `O=S(=O)(Nc1cccnc1)c1ccc(Oc2ccccc2)cc1`, the concentration at half-maximal activity (AC50) in assay [1] was 0.627 µM.

For the molecule `C=Cn1c(C(=O)O)ccc1-c1cccs1`, the activity change, negative = inhibition in assay [2] was 1.45% (inactive).

Consider `C[C@@H]1CN([C@H](C)CO)C(=O)c2ccccc2-c2ccccc2CO[C@@H]1CN(C)Cc1ccc(Oc2ccccc2)cc1`, for which, in assay [1], the AC50 is 12.7 µM.

As for `C[C@@H]1CCCCO[C@@H](CN(C)C(=O)Nc2ccc(C(F)(F)F)cc2)[C@H](C)CN([C@@H](C)CO)C(=O)c2cc(NC(=O)CCC(F)(F)F)ccc2O1`, the activity change, negative = inhibition in assay [2] was -7.66% (inactive).

Take `C[C@@H]1CCCCO[C@@H](CN(C)C(=O)Nc2cccc3ccccc23)[C@H](C)CN([C@H](C)CO)C(=O)c2cc(NC(=O)CCC(F)(F)F)ccc2O1`: in assay [2], the activity change, negative = inhibition is -4.12% (inactive).

For `C[C@@H]1CN([C@@H](C)CO)C(=O)Cc2cc(NC(=O)CCCN(C)C)ccc2O[C@H]1CN(C)CC1CCCCC1`, in assay [2], the activity change, negative = inhibition was 5.19% (inactive).

On to `CCc1ccc(S(=O)(=O)Nc2ccc(Br)cn2)cc1`, for which the AC50 in assay [1] is 3.67 µM.
